Here are results for 9 compounds from PubChem BioAssay (NCI).

Test systems include ACHN renal; CAKI-1 renal; DU-145 prostate; NCI-H226 lung; OVCAR-3 ovarian; OVCAR-5 ovarian; SK-OV-3 ovarian; SNB-75 CNS; UACC-257 melanoma; LOX IMVI melanoma.
What all share (assay): NCI tumour cell line growth inhibition, 48 h

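Dose response: 5 concentrations. Exposure: 48 h. Format: 96-well plates. Endpoint: linear interpolation; highest concentration if not reached. The concentration for 50% growth inhibition is given as GI50. TGI marks complete inhibition of growth.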 A value given as a limit tells only on which side of the number the result lay.

Regarding `COc1cc(-c2cc(-c3nc4ccc(Cl)cc4[nH]3)[nH]n2)cc(OC)c1OC`, the GI50 with ACHN renal was 2.96 µM; in the test with CAKI-1 renal it was 2.8 µM; in the test with DU-145 prostate it was 3.27 µM; in the test on NCI-H226 lung, 1.88 µM; in the test on OVCAR-3 ovarian, 3.5 µM; in the test on OVCAR-5 ovarian it was 12.1 µM. The GI50 is 4.47 µM with SK-OV-3 ovarian, 2.71 µM in the test on SNB-75 CNS and 2.6 µM in the test on UACC-257 melanoma. Besides, the TGI came to 12.9 µM in the test on ACHN renal; 11.1 µM in the test on CAKI-1 renal; 13.4 µM in the test on DU-145 prostate; 7.23 µM in the test on NCI-H226 lung; 12.1 µM with OVCAR-3 ovarian; 30.2 µM with OVCAR-5 ovarian. Besides, the TGI in the test on SK-OV-3 ovarian was 14.3 µM; with SNB-75 CNS it was 10.4 µM; in the test on UACC-257 melanoma, 7.55 µM.
With `COC1=CC(c2ccc[nH]2)=N/C1=C\c1ccc[nH]1`, the GI50 in the test with ACHN renal was 0.226 µM; with CAKI-1 renal, 0.151 µM; with DU-145 prostate, 0.163 µM; with NCI-H226 lung, 0.363 µM; with OVCAR-3 ovarian it was 0.0964 µM; in the test with OVCAR-5 ovarian, 0.683 µM. Further, the figures for the GI50 in the test with SK-OV-3 ovarian, with SNB-75 CNS and in the test with UACC-257 melanoma were 5.37 µM, 0.188 µM and 0.375 µM, respectively. The TGI with ACHN renal turned out to be 11.3 µM; with CAKI-1 renal, 3.26 µM; in the test on DU-145 prostate it was 13.3 µM; in the test with NCI-H226 lung, 12.4 µM; in the test on OVCAR-3 ovarian, 3.8 µM; in the test with OVCAR-5 ovarian it was 13.7 µM. The TGI was 18.6 µM with SK-OV-3 ovarian, 1.83 µM in the test on SNB-75 CNS and 9.24 µM with UACC-257 melanoma.
With `Cc1nc(NC(=O)CCCN2C(=O)c3cccc4cccc(c34)C2=O)sc1C(=O)Nc1cc(C(=O)NCCCN(C)C)n(C)c1`, the GI50 in the test on ACHN renal, with CAKI-1 renal, in the test on DU-145 prostate, with LOX IMVI melanoma, in the test on NCI-H226 lung and in the test on OVCAR-3 ovarian was over 100 µM in each case. Moreover, the GI50 in the test on OVCAR-5 ovarian, with SK-OV-3 ovarian and in the test with SNB-75 CNS was over 100 µM throughout. In addition, the TGI with ACHN renal, in the test on CAKI-1 renal, in the test with DU-145 prostate, in the test on LOX IMVI melanoma, in the test on NCI-H226 lung and with OVCAR-3 ovarian was over 100 µM in each case. For the same compound, the TGI with OVCAR-5 ovarian, with SK-OV-3 ovarian and with SNB-75 CNS was over 100 µM in each case.
Turning to `Nc1ccc(/C=N/Nc2ccnc3c(N)cccc23)c2cccnc12`, the GI50 with DU-145 prostate was 1.68 µM; with NCI-H226 lung, 4.12 µM; in the test on OVCAR-3 ovarian, 1.63 µM; in the test with OVCAR-5 ovarian, 1.86 µM; in the test with SK-OV-3 ovarian, 1.82 µM; in the test with SNB-75 CNS, 1.74 µM. Further, the TGI in the test on DU-145 prostate came to 3.13 µM; with NCI-H226 lung, 20.8 µM; with OVCAR-3 ovarian, 3.16 µM; with OVCAR-5 ovarian it was 3.44 µM; in the test with SK-OV-3 ovarian, 3.3 µM; in the test on SNB-75 CNS, 3.35 µM.
For the compound `CCC(C)C(NC(=O)C1CCCN1C(=O)C(NC(=O)C(C)N)C(C)C)C(N)=O` (centres undefined), the GI50 in the test on ACHN renal, in the test with CAKI-1 renal, in the test with DU-145 prostate, in the test with LOX IMVI melanoma, with NCI-H226 lung and with OVCAR-3 ovarian was over 100 µM throughout. The GI50 in the test with SK-OV-3 ovarian, in the test on SNB-75 CNS and in the test with UACC-257 melanoma was over 100 µM throughout. Moreover, the TGI in the test with ACHN renal, with CAKI-1 renal, with DU-145 prostate, with LOX IMVI melanoma, in the test on NCI-H226 lung and with OVCAR-3 ovarian was over 100 µM each time. Also, the TGI with SK-OV-3 ovarian, in the test on SNB-75 CNS and in the test with UACC-257 melanoma was over 100 µM throughout.
With `NCCC(O)(P(=O)(O)O)P(=O)(O)O`, the GI50 in the test with ACHN renal is 36 µM; in the test on DU-145 prostate it was over 100 µM; in the test with LOX IMVI melanoma, over 100 µM; in the test on NCI-H226 lung, 14.1 µM; in the test with OVCAR-3 ovarian, over 100 µM; in the test on OVCAR-5 ovarian it was over 100 µM. The GI50 in the test on SK-OV-3 ovarian, in the test with SNB-75 CNS and in the test with UACC-257 melanoma was over 100 µM each time. Moreover, the TGI was over 100 µM in the test with ACHN renal; over 100 µM in the test on DU-145 prostate; over 100 µM with LOX IMVI melanoma; 36.5 µM in the test with NCI-H226 lung; over 100 µM with OVCAR-3 ovarian; over 100 µM with OVCAR-5 ovarian. Also, the TGI with SK-OV-3 ovarian, with SNB-75 CNS and with UACC-257 melanoma was over 100 µM throughout.
As for `CC(=O)N=c1ccc2nc3c(cc(N)c4ccccc43)oc-2c1`, the GI50 was 1.34 µM in the test on ACHN renal; 1.55 µM in the test on CAKI-1 renal; 1.66 µM in the test on DU-145 prostate; 0.207 µM in the test on OVCAR-3 ovarian; 1.8 µM in the test on OVCAR-5 ovarian; 1.92 µM in the test with SK-OV-3 ovarian. The results for the GI50 with SNB-75 CNS and in the test on UACC-257 melanoma were 1.83 µM and 0.467 µM, respectively. Besides, the TGI in the test on ACHN renal is 2.62 µM; in the test on CAKI-1 renal it was 3.17 µM; in the test on DU-145 prostate, 3.03 µM; in the test with NCI-H226 lung, over 39.1 µM; with OVCAR-3 ovarian, 0.684 µM; in the test on OVCAR-5 ovarian, 3.94 µM. Moreover, the TGI with SK-OV-3 ovarian was 4.95 µM; in the test on SNB-75 CNS, 3.34 µM; with UACC-257 melanoma, 1.91 µM.
As to `COc1ccc(-c2ccc(C3CC(c4ccc(Cl)cc4)=NN3)o2)c([N+](=O)[O-])c1` (centres undefined), the GI50 in the test with DU-145 prostate, in the test with LOX IMVI melanoma, in the test with NCI-H226 lung, in the test with OVCAR-3 ovarian, with OVCAR-5 ovarian and in the test on SK-OV-3 ovarian was over 100 µM throughout. In addition, the GI50 with SNB-75 CNS and in the test with UACC-257 melanoma was over 100 µM each time. Further, the TGI in the test on DU-145 prostate, in the test on LOX IMVI melanoma, in the test with NCI-H226 lung, with OVCAR-3 ovarian, with OVCAR-5 ovarian and in the test with SK-OV-3 ovarian was over 100 µM in each case. The TGI in the test on SNB-75 CNS and in the test with UACC-257 melanoma was over 100 µM each time.
For `O=C(/C=C\c1ccc(Cl)cc1Cl)c1cccs1`, the TGI with ACHN renal was determined as 27.9 µM; with CAKI-1 renal, 80.4 µM; with DU-145 prostate it was 44.9 µM; with NCI-H226 lung, 51.3 µM; with OVCAR-3 ovarian it was 89.7 µM; in the test on OVCAR-5 ovarian it was 41.3 µM. Moreover, the TGI in the test with SK-OV-3 ovarian stood at 59.3 µM; in the test on SNB-75 CNS it was 42.2 µM; in the test with UACC-257 melanoma it was 36.4 µM.
